For experiment [1], the target named is T1, ABC1 (Mus musculus, UniProt P41233). The experiment can be described thus: Cholesterol efflux from 3H-cholesterol-labeled J774 macrophages to apolipoprotein-A1. Format: cell-based. The settings on record: 20 μg/ml human apolipoprotein-A1, indicated concentrations, 24 hours, data only in FIG. 4. More on the design: Mouse macrophages (J774) were labeled with ^3H-cholesterol; endogenous in cells; host or cells: J774 mouse macrophages. The source says: A cholesterol efflux assay measures the ability of cells to transfer cholesterol to an extracellular acceptor molecule and is dependent on ABC1 function. A standard cholesterol efflux assay is set out in Marcil et al., Arterioscler. Thromb. Vasc. Biol. 19:159–169, 1999, incorporated by reference herein for all purposes. Prior to this invention, this assay has not been used to identify compounds useful for reducing cholesterol transport from the gut to the blood or lymph, or for reducing LDL or serum cholesterol levels.
In this procedure, cells are loaded with radiolabeled cholesterol by any of several biochemical pathways. Cholesterol efflux of cells is measured after incubation for various times (typically 0 to 24 hours) in the presence of HDL3 or purified ApoAI. Cholesterol efflux is determined as the percentage of total cholesterol in the culture medium after various times of incubation. Increased ABC1 expression levels and/or biological activity are associated with increased efflux while decreased levels of ABC1 expression and/or biological activity are associated with decreased cholesterol efflux.
ABC1 activity can be inhibited genetically or chemically. […] After 24 hours, the medium was collected, centrifuged, and an aliquot collected for radioactivity determination by liquid scintillation counting. […]
Target sequence in this assay (P41233 whole entry): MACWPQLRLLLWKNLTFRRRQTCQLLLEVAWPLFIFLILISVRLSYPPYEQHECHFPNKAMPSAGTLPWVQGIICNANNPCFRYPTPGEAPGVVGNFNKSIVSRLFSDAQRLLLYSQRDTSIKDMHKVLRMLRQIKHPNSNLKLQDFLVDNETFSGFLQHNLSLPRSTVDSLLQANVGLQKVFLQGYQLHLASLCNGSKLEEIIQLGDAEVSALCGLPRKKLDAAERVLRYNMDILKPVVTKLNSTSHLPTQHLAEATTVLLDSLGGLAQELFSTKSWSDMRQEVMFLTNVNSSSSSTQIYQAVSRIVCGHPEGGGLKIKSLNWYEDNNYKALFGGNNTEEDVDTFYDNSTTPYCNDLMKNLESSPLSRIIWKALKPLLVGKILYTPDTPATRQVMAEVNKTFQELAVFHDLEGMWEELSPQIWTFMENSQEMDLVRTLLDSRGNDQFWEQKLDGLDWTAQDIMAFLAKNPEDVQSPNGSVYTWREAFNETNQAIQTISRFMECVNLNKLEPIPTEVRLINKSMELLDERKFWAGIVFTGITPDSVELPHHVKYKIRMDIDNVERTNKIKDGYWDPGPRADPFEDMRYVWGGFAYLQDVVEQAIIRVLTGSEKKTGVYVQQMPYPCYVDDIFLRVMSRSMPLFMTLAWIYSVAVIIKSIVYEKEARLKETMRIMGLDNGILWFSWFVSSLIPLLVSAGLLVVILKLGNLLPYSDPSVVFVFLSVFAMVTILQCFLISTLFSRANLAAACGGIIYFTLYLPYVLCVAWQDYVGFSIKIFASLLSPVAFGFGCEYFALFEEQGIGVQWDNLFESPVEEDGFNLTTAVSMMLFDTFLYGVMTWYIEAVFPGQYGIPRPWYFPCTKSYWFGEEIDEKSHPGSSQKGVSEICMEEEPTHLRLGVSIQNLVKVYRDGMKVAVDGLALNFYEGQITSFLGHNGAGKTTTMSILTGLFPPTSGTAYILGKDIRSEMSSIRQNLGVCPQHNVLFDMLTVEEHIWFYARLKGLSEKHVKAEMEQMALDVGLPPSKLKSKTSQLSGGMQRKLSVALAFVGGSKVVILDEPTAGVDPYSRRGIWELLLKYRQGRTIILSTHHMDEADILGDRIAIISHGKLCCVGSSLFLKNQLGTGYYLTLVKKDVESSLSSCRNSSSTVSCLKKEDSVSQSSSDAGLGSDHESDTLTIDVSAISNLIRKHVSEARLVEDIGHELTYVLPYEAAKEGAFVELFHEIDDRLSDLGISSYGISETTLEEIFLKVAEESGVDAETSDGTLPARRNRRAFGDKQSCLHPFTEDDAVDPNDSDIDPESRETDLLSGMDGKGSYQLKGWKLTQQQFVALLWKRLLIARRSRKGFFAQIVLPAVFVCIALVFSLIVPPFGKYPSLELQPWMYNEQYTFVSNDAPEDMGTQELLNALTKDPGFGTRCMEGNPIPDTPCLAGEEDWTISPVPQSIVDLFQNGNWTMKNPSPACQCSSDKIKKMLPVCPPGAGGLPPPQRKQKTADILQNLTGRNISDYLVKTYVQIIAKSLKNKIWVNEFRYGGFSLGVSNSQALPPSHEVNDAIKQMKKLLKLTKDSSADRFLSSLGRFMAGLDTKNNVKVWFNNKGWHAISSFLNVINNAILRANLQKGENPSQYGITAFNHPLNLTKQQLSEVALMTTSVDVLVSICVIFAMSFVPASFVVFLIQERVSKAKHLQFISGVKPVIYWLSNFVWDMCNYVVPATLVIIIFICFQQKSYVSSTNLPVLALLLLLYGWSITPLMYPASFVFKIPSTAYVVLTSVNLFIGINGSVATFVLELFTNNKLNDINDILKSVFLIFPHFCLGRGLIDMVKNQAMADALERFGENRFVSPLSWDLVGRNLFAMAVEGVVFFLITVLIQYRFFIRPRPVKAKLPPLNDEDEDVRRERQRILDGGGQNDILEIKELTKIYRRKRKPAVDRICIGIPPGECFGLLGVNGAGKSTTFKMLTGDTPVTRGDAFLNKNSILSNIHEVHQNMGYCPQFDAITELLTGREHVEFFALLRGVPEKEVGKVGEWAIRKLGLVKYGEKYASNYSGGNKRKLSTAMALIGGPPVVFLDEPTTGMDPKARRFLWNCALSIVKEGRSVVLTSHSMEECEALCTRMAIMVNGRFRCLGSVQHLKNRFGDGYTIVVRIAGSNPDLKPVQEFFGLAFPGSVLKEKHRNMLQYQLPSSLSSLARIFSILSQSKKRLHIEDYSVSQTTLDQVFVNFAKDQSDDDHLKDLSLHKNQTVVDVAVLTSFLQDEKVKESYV

For experiment [2], the target named is T1, ABC1. The arrangement: host or cells: frog oocytes. The settings on record: frog oocytes induced to express ABC1; Becq et al. 1997; cited from earlier work.
Target sequence in this assay (P41233 61-2261 limits assumed): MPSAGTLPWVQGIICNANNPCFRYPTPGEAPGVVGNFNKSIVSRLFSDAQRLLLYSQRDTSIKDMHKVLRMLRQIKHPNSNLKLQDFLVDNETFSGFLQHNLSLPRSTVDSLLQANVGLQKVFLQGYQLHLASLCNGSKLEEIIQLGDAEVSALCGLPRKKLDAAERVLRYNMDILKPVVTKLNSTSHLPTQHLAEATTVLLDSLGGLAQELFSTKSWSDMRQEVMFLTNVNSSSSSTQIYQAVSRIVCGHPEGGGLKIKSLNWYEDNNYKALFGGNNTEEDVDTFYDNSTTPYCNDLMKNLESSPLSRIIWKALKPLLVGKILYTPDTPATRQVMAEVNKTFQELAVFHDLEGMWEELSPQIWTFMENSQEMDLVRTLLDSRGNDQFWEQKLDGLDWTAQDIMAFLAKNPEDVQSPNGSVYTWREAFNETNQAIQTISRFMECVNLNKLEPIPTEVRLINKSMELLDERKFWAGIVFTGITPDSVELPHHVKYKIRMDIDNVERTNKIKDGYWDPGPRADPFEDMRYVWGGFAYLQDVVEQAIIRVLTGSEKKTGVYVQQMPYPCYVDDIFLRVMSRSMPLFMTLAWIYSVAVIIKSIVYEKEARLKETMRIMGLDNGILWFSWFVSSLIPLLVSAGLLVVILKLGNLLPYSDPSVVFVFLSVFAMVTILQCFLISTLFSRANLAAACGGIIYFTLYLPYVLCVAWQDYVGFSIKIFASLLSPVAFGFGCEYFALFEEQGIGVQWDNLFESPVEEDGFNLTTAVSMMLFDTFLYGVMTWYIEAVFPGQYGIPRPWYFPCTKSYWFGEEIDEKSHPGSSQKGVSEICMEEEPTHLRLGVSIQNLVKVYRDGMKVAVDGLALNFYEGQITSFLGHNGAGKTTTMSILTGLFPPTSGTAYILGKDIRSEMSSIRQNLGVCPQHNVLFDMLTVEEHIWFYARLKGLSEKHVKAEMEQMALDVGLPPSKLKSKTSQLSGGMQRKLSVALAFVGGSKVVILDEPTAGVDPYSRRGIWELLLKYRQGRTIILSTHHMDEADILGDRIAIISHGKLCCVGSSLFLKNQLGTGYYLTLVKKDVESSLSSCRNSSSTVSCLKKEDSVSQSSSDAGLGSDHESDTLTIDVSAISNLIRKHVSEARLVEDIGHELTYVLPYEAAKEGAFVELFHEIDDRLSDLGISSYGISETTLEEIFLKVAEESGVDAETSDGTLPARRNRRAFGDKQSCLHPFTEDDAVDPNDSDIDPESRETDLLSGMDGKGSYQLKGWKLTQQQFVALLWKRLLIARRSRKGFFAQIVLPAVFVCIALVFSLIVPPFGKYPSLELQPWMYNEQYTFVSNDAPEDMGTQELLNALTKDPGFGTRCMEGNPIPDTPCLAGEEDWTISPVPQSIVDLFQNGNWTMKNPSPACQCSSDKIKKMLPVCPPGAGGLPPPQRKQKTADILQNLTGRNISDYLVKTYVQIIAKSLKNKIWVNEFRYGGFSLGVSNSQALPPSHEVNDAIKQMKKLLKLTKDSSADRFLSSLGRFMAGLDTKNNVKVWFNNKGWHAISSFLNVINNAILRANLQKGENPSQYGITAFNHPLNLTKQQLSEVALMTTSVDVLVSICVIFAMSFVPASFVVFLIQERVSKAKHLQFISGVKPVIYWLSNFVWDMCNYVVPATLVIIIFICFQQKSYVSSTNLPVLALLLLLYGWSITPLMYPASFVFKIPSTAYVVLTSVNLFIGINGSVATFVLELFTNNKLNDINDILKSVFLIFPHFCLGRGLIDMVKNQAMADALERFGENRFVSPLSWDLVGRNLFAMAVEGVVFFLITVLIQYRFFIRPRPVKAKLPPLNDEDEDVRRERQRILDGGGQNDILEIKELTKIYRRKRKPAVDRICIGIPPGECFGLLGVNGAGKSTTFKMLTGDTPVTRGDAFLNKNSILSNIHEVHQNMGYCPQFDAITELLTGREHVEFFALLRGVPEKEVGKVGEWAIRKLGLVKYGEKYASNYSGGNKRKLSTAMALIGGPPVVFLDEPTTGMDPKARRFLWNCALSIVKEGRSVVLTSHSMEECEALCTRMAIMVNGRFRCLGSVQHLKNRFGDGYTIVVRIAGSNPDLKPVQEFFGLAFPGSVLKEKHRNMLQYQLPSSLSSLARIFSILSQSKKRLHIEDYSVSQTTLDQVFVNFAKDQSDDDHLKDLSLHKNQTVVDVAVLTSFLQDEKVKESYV

Here are results for one compound from patent US7166584B1, “Cholesterol transport gene” (Wisconsin Alumni Research Foundation, priority 1999, dated 2007).

SMILES strings stand for the structures.

As to `COc1ccc(Cl)cc1C(=O)NCCc1ccc(S(=O)(=O)NC(=O)NC2CCCCC2)cc1` [Glyburide], the “Inhibition of ABC1 activity (cholesterol efflux)” value on ABC1 [1] is listed as “inhibit ABC1 activity”. The “Inhibition of iodide transport” value on ABC1 [2] is recorded as “inhibit iodide transport”.
